Experimental data as given in patent US20260226105A1, “Antimicrobial And Antibiofilm Peptides Sequences With Metal-Binding Motifs” (The Trustee of the University of Pennsylvania, priority 2021, published 2026).
Values joined by “and” are separate entries in the source; they are usually repeats but may differ in a detail not shown here. Equal entries are not always repeated. Where two headings read alike, the source gives them in different places. Ends that are not written are not given here.

Key:
[1] = test system: E. coli (KpC+1812446) planktonic cells; conditions: Planktonic
[2] = test system: K. pneumoniae (KpC+ 1825971)
E. coli (ATCC 25922) [3] = conditions: agent alone, BM2 minimal medium
[4] = test system: K. pneumoniae (ATCC13883); conditions: Table 3, agent alone
E. coli (ATCC 25922) [5] = test system: E. coli (ATCC 25922)
E. coli (KpC+ 1812446) = conditions: MH broth, 12 h, 37° C.
[6] = test system: K. pneumoniae (KpC1825971); conditions: agent alone, BM2 minimal medium
E. coli (KpC1812446) [7] = conditions: agent alone, BM2 minimal medium
E. coli (ATCC25922) = conditions: Table 3, agent alone
[8] = test system: K. pneumoniae (ATCC 13883); conditions: MH broth, 12 h, 37° C.
[9] = test system: K. pneumoniae (ATCC13883); conditions: agent alone, BM2 minimal medium
MRSA (3730529) = conditions: MH broth, 12 h, 37° C.
[10] = test system: K. pneumoniae (KpC1825971); conditions: Table 3, agent alone
[11] = test system: E. coli (KpC+1812446) biofilm; conditions: Biofilm
E. coli (KpC1812446) [12] = conditions: Table 3, agent alone
[13] = test system: P. aeruginosa (ATCC 27853); conditions: MH broth, 12 h, 37° C.
E. coli KpC+1812446 = format: in vivo, mice; conditions: infected Balb/C mice, 5 and 10 mg·Kg^−1
Protocol: Male Balb/C (18-20 g) mice from the Biotério Central do Campus da USP in Ribeirão Preto, São Paulo, were kept in groups of 5 per cage at 22° C. with normal cycles of light and free access to food and water. The care and use of the animals were approved by the Ethics Committee of Universidade Católica Dom Bosco number 019/2016. We assessed the ability of the peptides to protect the mice from lethal systemic infections induced with E. coli KpC+1812446. The mice (n=40) were randomly placed into eight groups of five mice each, and each mouse was injected intraperitoneally with 200 μL of saline solution containing 2×10^7 CFU of E. coli KpC+1812446. Intraperitoneal treatment with 5 or 10 mg·Kg^−1 of each peptide was initiated after one hour of infection and repeated at 24 h intervals for seven days^61. Gentamicin at 10 mg·Kg^−1 of body weight and normal saline were used as positive and negative controls, respectively.

[14] = Cu(II) supplemented medium (0.25 μM)

For VIHKWKLFKKIGAVLKVL [VIH-CM15], the FICI ([1]; peptide + AmP) was 2.0, the FICI ([1]; peptide + CHL) was 1.0 and 1.002 and the FICI ([1]; peptide + MER) was 1.0. The FICI ([1]; peptide + STR) was 1.29, the FICI ([1]; peptide + TRI) was 1.0 and the “MIC in Cu(II) supplemented medium” value [2, 14] was 1 µM. For the same sequence, the MIC ([2]; MH broth, 12 h, 37° C.) was 1 µM, the MBIC (E. coli (ATCC 25922) [3]) was 4 µM and the MIC [4] was 30 µM. For the same sequence, the “MIC in Cu(II) supplemented medium” value (E. coli (ATCC 25922) [5]; [14]) was 1 µM, the MIC (E. coli (ATCC 25922) [5]; MH broth, 12 h, 37° C.) was 1 µM and the MIC (E. coli (KpC+ 1812446)) was 4 µM. The MBIC [6] was 4 µM, the “MIC, TETA” value (E. coli MG1655; cell-impermeable Cu(II) chelator triethylenetetramine (TETA) 200 μM) was 1 µM and the “MIC, TTM” value (E. coli MG1655; cell-permeable Cu(II) chelator tetrathiolmolybdate (TTM) 200 μM) was 32 µM. The “MIC, No Chelator” value (E. coli MG1655; no chelator) was 0.5 µM, the MBIC (E. coli (KpC1812446) [7]) was 8 µM and the MIC (E. coli (ATCC25922)) was 4 µM. It also gave an MIC [8] of 1 µM, an MBIC [9] of over 30 µM and an MIC (MRSA (3730529)) of 2 µM. For the same sequence, the MIC [10] was 8 µM, the FICI ([11]; peptide + AmP) was 1.5 and the FICI ([11]; peptide + CHL) was 1.38. The FICI ([11]; peptide + MER) was 0.185 and 0.19, the FICI ([11]; peptide + STR) was 1.0 and the FICI ([11]; peptide + TRI) was 1.0. The “MIC in Cu(II) supplemented medium” value (S. aureus (ATCC 25923); [14]) was 1 µM, the MIC (S. aureus (ATCC 25923); MH broth, 12 h, 37° C.) was 1 µM and the MIC (E. coli (KpC1812446) [12]) was 4 µM. For the same sequence, the MIC [13] was 4 µM, the in vivo toxicity (E. coli KpC+1812446) was “decreased the toxicity of CM15” and the “MIC in Cu(II) supplemented medium” value (E. coli (KpC+ 2101123); [14]) was 2 µM. It also gave an MIC (E. coli (KpC+ 2101123); MH broth, 12 h, 37° C.) of 2 µM.
